Consider 16 compounds from patent US20160361330A1 (priority 2014, published 2016).

The subject of assay [1] is EBOV-GFP (Ebola virus expressing the GFP reporter gene). The assay is described as follows: microbe, parasite or virus in culture. Type of assay: cell-based. The following applies: read-out: EC50 (nM) Reporter Virus EBOV-GFP HMVEC-TERT.
The test system is the same in assay [2]. The assay is described as follows: microbe, parasite or virus in culture. Type of assay: cell-based. Conditions: Zaire ebolavirus, Huh-7, read-out: EC50 (nM) Reporter Virus EBOV-GFP Huh-7.
The subject of assay [3] is ebolavirus (EBOV) strain Zaire. The assay is described as follows: organism not typed. The following applies: read-out: EC50 (nM) Antigen expression (high content imaging) Ebola Hela. The class given is cell-based, Ebola virus.
Assay [4] deals with ebolavirus (EBOV) strain Zaire. The assay is described as follows: organism not typed. Type of assay: cell-based, Ebola virus. Conditions: read-out: EC50 (nM) Antigen expression (high content imaging) Ebola Macrophage.
Assay [5] concerns Ebola virus (EBOV). Nature of the assay: microbe, parasite or virus in culture. The class given is cell-based. Conditions: Zaire ebolavirus, Huh-7, read-out: EC50 (nM) RNA Ebola Huh-7.
The test system of assay [6] is Ebola virus (EBOV). Nature of the assay: microbe, parasite or virus in culture. The class given is cell-based. The following applies: Zaire ebolavirus, Huh-7, read-out: EC50 (nM) Yield Ebola Huh-7.
Assay [7] deals with NiV GFP (Nipah virus expressing the GFP reporter gene). The assay is described as follows: microbe, parasite or virus in culture. Type of assay: cell-based. The following applies: Henipavirus nipahense, read-out: EC50 (nM) Reporter Virus NiV GFP HMVEC-TERT.
Assay [8] concerns NiV-Luc (Nipah virus expressing the luciferase reporter gene). The assay is described as follows: microbe, parasite or virus in culture. The class given is cell-based. Conditions: Henipavirus nipahense, read-out: EC50 (nM) Reporter Virus NiV Luc HMVEC-TERT.

“And” between values parts separate entries of the source, which are not always exact repeats. Identical values can stand only once. Like-named read-outs stand apart in the source and are kept apart here.

Consider `CCC(CC)COC(=O)[C@H](C)N[P@](=O)(OC[C@H]1O[C@@](C#N)(c2ccc3c(N)ncnn23)[C@H](O)[C@@H]1O)Oc1ccccc1` (single isomer, unassigned) [(S)-Diastereomer of Compound 9 (Compound 32)], for which the EC50 was found to be 40 nM in assay [1] (Zaire ebolavirus), 81 nM in assay [2], 100 nM in assay [3] (HeLa) and 87 nM in assay [4] (Macrophage).

Regarding `CC(C)(C)C(=O)SCCOP(=O)(OCCSC(=O)C(C)(C)C)OC[C@H]1O[C@@](C#N)(c2ccc3c(N)ncnn23)[C@H](O)[C@@H]1O` [Compound 15], the EC50 in assay [1] (Zaire ebolavirus) is 630 nM; in assay [2], 271 nM; in assay [3] (HeLa) it was 520 nM; in assay [4] (Macrophage), 501 nM.

For `C[C@H](N[P@](=O)(OC[C@H]1O[C@@](C#N)(c2ccc3c(N)ncnn23)[C@H](O)[C@@H]1O)Oc1ccccc1)C(=O)OCC(C)(C)C` [Compound 27, (S)-neopentyl 2-(((S)-(((2R,3S,4R,5R)-5-(4-aminopyrrolo[2,1-f][1,2,4]triazin-7-yl)-5-cyano-3,4-dihydroxytetrahydrofuran-2-yl)methoxy)(phenoxy)phosphoryl)amino) propanoate], the figures for the EC50 in assay [1] (Zaire ebolavirus) and in assay [3] (HeLa) were 82 nM and 182 nM, respectively.

`CCOC(=O)C(C)(C)NP(=O)(OC[C@H]1O[C@@](C#N)(c2ccc3c(N)ncnn23)[C@H](O)[C@@H]1O)Oc1ccccc1` (stereo partly drawn) [Compound 30, ethyl 2-(((((2R,3S,4R,5R)-5-(4-aminopyrrolo[2,1-f][1,2,4]triazin-7-yl)-5-cyano-3,4-dihydroxytetrahydrofuran-2-yl)methoxy)(phenoxy)phosphoryl)amino)-2-methylpropanoate]: the half-maximal effective concentration (EC50) is 11100 nM in assay [1] (Zaire ebolavirus), greater than 20000 nM in assay [3] (HeLa) and 1230 nM in assay [4] (Macrophage).

For `CCOC(=O)[C@H](Cc1ccccc1)NP(=O)(OC[C@H]1O[C@@](C#N)(c2ccc3c(N)ncnn23)[C@H](O)[C@@H]1O)Oc1ccccc1` (stereo partly drawn) [Compound 21, (2S)-ethyl 2-(((((2R,3S,4R,5R)-5-(4-aminopyrrolo[2,1-f][1,2,4]triazin-7-yl)-5-cyano-3,4-dihydroxytetrahydrofuran-2-yl)methoxy)(phenoxy)phosphoryl)amino)-3-phenylpropanoate], the EC50 was 905 nM in assay [1] (Zaire ebolavirus), 473 nM in assay [1] and 270 nM in assay [4] (Macrophage).

Turning to `CC(C)OC(=O)[C@H](C)NP(=O)(OC[C@H]1O[C@@](C#N)(c2ccc3c(N)ncnn23)[C@H](O)[C@@H]1O)Oc1ccccc1` (stereo in doubt) [Compound 23, (S)-isopropyl 2-(((R)-(((2R,3S,4R,5R)-5-(4-aminopyrrolo[2,1-f][1,2,4]triazin-7-yl)-5-cyano-3,4-dihydroxytetrahydrofuran-2-yl)methoxy)(phenoxy)phosphoryl)amino)propanoate], the EC50 is 458 nM in assay [1] (Zaire ebolavirus); 1650 nM in assay [3] (HeLa); 1840 nM in assay [3]; 243 nM in assay [4] (Macrophage); 350 nM and 297 nM in assay [4].

With `CCC(CC)COC(=O)[C@H](C)NP(=O)(OC[C@H]1O[C@@](C#N)(c2ccc3c(N)ncnn23)[C@H](O)[C@@H]1O)Oc1ccccc1` (stereo partly drawn) [Compound 9, (2S)-2-ethylbutyl 2-(((((2R,3S,4R,5R)-5-(4-aminopyrrolo[2,1-f][1,2,4]triazin-7-yl)-5-cyano-3,4-dihydroxytetrahydrofuran-2-yl)methoxy)(phenoxy)phosphoryl)amino) propanoate], the concentration for a half-maximal effect (EC50) in assay [2] is 90 nM; in the assay with Ebola virus (EBOV) [5] it was 1 nM; in the assay with Ebola virus (EBOV) [6], 1030 nM; in assay [3] (HeLa), 290 nM; in assay [3], 270 nM; in assay [4], 501 nM. The values for the EC50 in assay [7] and in assay [8] were 60 nM and 30 nM, respectively.

For the compound `CCC(CC)COC(=O)[C@H](C)N[P@@](=O)(OC[C@H]1O[C@@](C#N)(c2ccc3c(N)ncnn23)[C@H](O)[C@@H]1O)Oc1ccccc1` (single isomer, unassigned) [(R)-Diastereomer of Compound 9], the EC50 in assay [1] (Zaire ebolavirus) came to 62 nM; in assay [2], 70 nM; in assay [3] (HeLa), 210 nM; in assay [4] (Macrophage), 112 nM.

On to `CC(C)OC(=O)[C@H](Cc1ccccc1)NP(=O)(OC[C@H]1O[C@@](C#N)(c2ccc3c(N)ncnn23)[C@H](O)[C@@H]1O)Oc1ccccc1` (stereo partly drawn) [Compound 25, (2S)-isopropyl 2-(((((2R,3S,4R,5R)-5-(4-aminopyrrolo[2,1-f][1,2,4]triazin-7-yl)-5-cyano-3,4-dihydroxytetrahydrofuran-2-yl)methoxy)(phenoxy)phosphoryl)amino)-3-phenylpropanoate], for which the EC50 in assay [3] (HeLa) is 6720 nM.

In the case of `C[C@H](NP(=O)(OC[C@H]1O[C@@](C#N)(c2ccc3c(N)ncnn23)[C@H](O)[C@@H]1O)Oc1ccccc1)C(=O)OC1CCC1` (stereo partly drawn) [Compound 24, (2S)-cyclobutyl 2-(((((2R,3S,4R,5R)-5-(4-aminopyrrolo[2,1-f][1,2,4]triazin-7-yl)-5-cyano-3,4-dihydroxytetrahydrofuran-2-yl)methoxy)(phenoxy)phosphoryl)amino)propanoate], in assay [3] (HeLa), the EC50 amounted to 785 nM.

Turning to `CCOC(=O)[C@H](C)NP(=O)(OC[C@H]1O[C@@](C#N)(c2ccc3c(N)ncnn23)[C@H](O)[C@@H]1O)Oc1ccccc1` (stereo partly drawn) [Compound 10, (2S)-ethyl 2-(((((2R,3S,4R,5R)-5-(4-aminopyrrolo[2,1-f][1,2,4]triazin-7-yl)-5-cyano-3,4-dihydroxytetrahydrofuran-2-yl)methoxy)(phenoxy)phosphoryl)amino)propanoate], the half-maximal effective concentration (EC50) in assay [3] (HeLa) is 3200 nM.

On to `C[C@H](NP(=O)(OC[C@H]1O[C@@](C#N)(c2ccc3c(N)ncnn23)[C@H](O)[C@@H]1O)Oc1ccccc1)C(=O)OC1CCCC1` (stereo partly drawn) [Compound 28, (2S)-cyclopentyl 2-(((((2R,3S,4R,5R)-5-(4-aminopyrrolo[2,1-f][1,2,4]triazin-7-yl)-5-cyano-3,4-dihydroxytetrahydrofuran-2-yl)methoxy)(phenoxy)phosphoryl)amino) propanoate], for which the 50% effective concentration (EC50) in assay [1] (Zaire ebolavirus) was 102 nM; in assay [3] (HeLa) it was 975 nM; in assay [3] it was 682 nM; in assay [4] (Macrophage), 120 nM.

Regarding `CCOC(=O)[C@@H](NP(=O)(OC[C@H]1O[C@@](C#N)(c2ccc3c(N)ncnn23)[C@H](O)[C@@H]1O)Oc1ccccc1)C(C)C` (stereo partly drawn) [Compound 22, (2S)-ethyl 2-(((((2R,3S,4R,5R)-5-(4-aminopyrrolo[2,1-f][1,2,4]triazin-7-yl)-5-cyano-3,4-dihydroxytetrahydrofuran-2-yl)methoxy)(phenoxy)phosphoryl)amino)-3-methylbutanoate], the EC50 in assay [3] (HeLa) came to 11600 nM.

`C[C@H](NP(=O)(OC[C@H]1O[C@@](C#N)(c2ccc3c(N)ncnn23)[C@H](O)[C@@H]1O)Oc1ccccc1)C(=O)OC1CCCCC1` (stereo partly drawn) [Compound 29, (2S)-cyclohexyl 2-(((((2R,3S,4R,5R)-5-(4-aminopyrrolo[2,1-f][1,2,4]triazin-7-yl)-5-cyano-3,4-dihydroxytetrahydrofuran-2-yl)methoxy)(phenoxy)phosphoryl)amino) propanoate]: the EC50 in assay [3] (HeLa) worked out at 275 nM.

Consider `COC(=O)[C@H](C)N[P@](=O)(OC[C@H]1O[C@@](C#N)(c2ccc3c(N)ncnn23)[C@H](O)[C@@H]1O)Oc1ccccc1` [Compound 26, (S)-methyl 2-(((S)-(((2R,3S,4R,5R)-5-(4-aminopyrrolo[2,1-f][1,2,4]triazin-7-yl)-5-cyano-3,4-dihydroxytetrahydrofuran-2-yl)methoxy)(phenoxy)phosphoryl)amino)propanoate], for which the concentration for a half-maximal effect (EC50) in assay [1] (Zaire ebolavirus) was 283 nM; in assay [3] (HeLa), 970 nM; in assay [3], 1100 nM; in assay [4] (Macrophage), 1180 nM; in assay [4], 1290 nM.

On to `CC(C)OC(=O)C(C)(C)NP(=O)(OC[C@H]1O[C@@](C#N)(c2ccc3c(N)ncnn23)[C@H](O)[C@@H]1O)Oc1ccccc1` (stereo partly drawn) [Compound 31, Isopropyl 2-(((((2R,3S,4R,5R)-5-(4-aminopyrrolo[2,1-f][1,2,4]triazin-7-yl)-5-cyano-3,4-dihydroxytetrahydrofuran-2-yl)methoxy)(phenoxy)phosphoryl)amino)-2-methylpropanoate], for which the EC50 was 11100 nM in assay [1] (Zaire ebolavirus), greater than 20000 nM in assay [3] (HeLa), greater than 10000 nM in assay [3] and 1230 nM in assay [4] (Macrophage).

The term EC50 denotes the concentration needed to bring the measured effect to its halfway point.
